Data: patent publication US8501794B2, “Compounds as cannabinoid receptor ligands” (priority 2007, dated 2013)
Read-outs that look alike come from different tables or passages of the source.

What was measured:
rat CB2 = molecular target: T1, rat CB2 (Rattus norvegicus, UniProt Q9QZN9); assay: rat CB2 radioligand binding assay ([3H]CP-55,940 competition); set-up: expressed in transfected cells; host or cells: HEK293
T1 sequence (Q9QZN9 1-360): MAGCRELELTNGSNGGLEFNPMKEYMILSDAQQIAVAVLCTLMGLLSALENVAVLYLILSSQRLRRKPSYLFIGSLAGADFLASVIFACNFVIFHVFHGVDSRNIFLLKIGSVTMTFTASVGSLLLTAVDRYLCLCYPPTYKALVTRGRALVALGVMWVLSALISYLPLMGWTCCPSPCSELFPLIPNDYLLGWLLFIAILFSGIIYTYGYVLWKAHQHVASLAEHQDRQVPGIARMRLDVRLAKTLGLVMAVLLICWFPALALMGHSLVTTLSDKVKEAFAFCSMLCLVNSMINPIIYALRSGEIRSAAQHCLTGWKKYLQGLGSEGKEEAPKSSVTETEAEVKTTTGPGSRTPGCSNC

human CB2 receptors = molecular target: T2, human CB2 receptors (Homo sapiens, UniProt P34972); assay: human CB2 radioligand binding assay ([3H]CP-55,940 competition)
T2 construct: expressed in transfected cells; host or cells: HEK293

[1] = HEK293 membranes, 0.5 nM [3H]CP-55,940, read-out: human CB2 (Ki)

T2 sequence (P34972 whole entry): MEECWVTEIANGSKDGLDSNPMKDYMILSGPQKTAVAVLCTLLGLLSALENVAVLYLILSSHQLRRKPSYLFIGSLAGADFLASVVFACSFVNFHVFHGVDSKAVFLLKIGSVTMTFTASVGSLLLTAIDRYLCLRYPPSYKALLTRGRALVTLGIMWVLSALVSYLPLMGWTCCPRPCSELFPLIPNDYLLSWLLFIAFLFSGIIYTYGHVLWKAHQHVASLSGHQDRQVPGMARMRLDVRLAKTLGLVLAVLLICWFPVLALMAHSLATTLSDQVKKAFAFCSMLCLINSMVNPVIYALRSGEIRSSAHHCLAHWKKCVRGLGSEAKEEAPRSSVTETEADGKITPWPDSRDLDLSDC

SMILES | Ki (rat CB2) | Ki (human CB2 receptors; [1]) | Ki (human CB2 receptors)
CCCCc1cn(C2CCC2)s/c1=N\C(=O)c1cc(Cl)ccc1OC [Example 3, N-[(5Z)-4-butyl-2-cyclobutylisothiazol-5(2H)-ylidene]-5-chloro-2-methoxybenzamide] | 11 nM | 410 nM | –
CCCCc1c(C)n(C)s/c1=N\C(=O)C12CC3CC(CC1C3)C2 [Example 4, N-[(5Z)-4-butyl-2,3-dimethylisothiazol-5(2H)-ylidene]hexahydro-2,5-methanopentalene-3a(1H)-carboxamide] | 3.2 nM | – | 3.8 nM
CCCCc1cn(C2(C)CCC2)s/c1=N\C(=O)c1cc(Cl)ccc1OC [Example 5, N-[(5Z)-4-butyl-2-(1-methylcyclobutyl)isothiazol-5(2H)-ylidene]-5-chloro-2-methoxybenzamide] | 2.2 nM | – | 30 nM
CCCC1CCc2c(/c(=N/C(=O)c3cc(Cl)ccc3OC)sn2C(C)(C)C)C1 (centres unmarked) [Example 9, N-[(3Z)-1-tert-butyl-5-propyl-4,5,6,7-tetrahydro-2,1-benzisothiazol-3(1H)-ylidene]-5-chloro-2-methoxybenzamide] | 0.42 nM | – | 0.9 nM
COc1ccc(Cl)cc1C(=O)/N=c1\sn(C(C)(C)C)c2c1CC1(CC2)OCCO1 [Example 10, N-[(3Z)-1-tert-butyl-1,4,6,7-tetrahydro-3H-spiro[2,1-benzisothiazole-5,2′-[1,3]dioxolan]-3-ylidene]-5-chloro-2-methoxybenzamide] | 42 nM | 190 nM | –
COCCc1cn(C(C)(C)C)s/c1=N\C(=O)c1cc(Cl)ccc1OC [Example 11, N-[(5Z)-2-tert-butyl-4-(2-methoxyethyl)isothiazol-5(2H)-ylidene]-5-chloro-2-methoxybenzamide] | 29 nM | – | –
COc1ccc(Cl)cc1C(=O)/N=c1\sn(C(C)(C)C)cc1CCN1CCOCC1 [Example 12, N-[(5Z)-2-tert-butyl-4-(2-morpholin-4-ylethyl)isothiazol-5(2H)-ylidene]-5-chloro-2-methoxybenzamide] | 12 nM | 230 nM | –
CCC1CC1c1cn(C(C)(C)C)s/c1=N\C(=O)c1cc(Cl)ccc1OC (centres unmarked) [Example 27, N-[(5Z)-2-tert-butyl-4-(2-ethylcyclopropyl)isothiazol-5(2H)-ylidene]-5-chloro-2-methoxybenzamide] | 23 nM | 240 nM | –
COc1ccc(Cl)cc1C(=O)/N=c1\sn(C(C)(C)C)cc1C(O)c1ccccc1 (centres unmarked) [Example 31, N-[(5Z)-2-tert-butyl-4-[hydroxy(phenyl)methyl]isothiazol-5(2H)-ylidene]-5-chloro-2-methoxybenzamide] | 5.8 nM | – | 63 nM
COc1ccc(Cl)cc1C(=O)/N=c1\sn(C(C)(C)C)cc1CN=[N+]=[N-] [Example 32, N-[(5Z)-4-(azidomethyl)-2-tert-butylisothiazol-5(2H)-ylidene]-5-chloro-2-methoxybenzamide] | 20 nM | – | 170 nM
COc1ccc(Cl)cc1C(=O)/N=c1\sn(C(C)(C)C)cc1C(O)CC1CCC1 (centres unmarked) [Example 33, N-[(5Z)-2-tert-butyl-4-(2-cyclobutyl-1-hydroxyethyl)isothiazol-5(2H)-ylidene]-5-chloro-2-methoxybenzamide] | 1 nM | – | 3.7 nM
COc1ccc(Cl)cc1C(=O)/N=c1\sn(C(C)(C)C)cc1Cc1ccccc1 [Example 35, N-[(5Z)-4-benzyl-2-tert-butylisothiazol-5(2H)-ylidene]-5-chloro-2-methoxybenzamide] | 1.1 nM | – | 9.1 nM
COc1ccc(Cl)cc1C(=O)/N=c1\sn(C(C)(C)C)cc1C(O)c1cccs1 (centres unmarked) [Example 44, N-[(5Z)-2-tert-butyl-4-[hydroxy(thien-2-yl)methyl]isothiazol-5(2H)-ylidene]-5-chloro-2-methoxybenzamide] | 2.1 nM | – | 27 nM
COC(=O)CCCc1cn(C(C)(C)C)s/c1=N\C(=O)c1cc(Cl)ccc1OC [Example 45, Methyl 4-{(5Z)-2-tert-butyl-5-[(5-chloro-2-methoxybenzoyl)imino]-2,5-dihydroisothiazol-4-yl}butanoate] | 5.6 nM | 120 nM | –
CCCCc1cn(C(C)(C)C)s/c1=N\C(=O)c1cc(Cl)ccc1OCC(F)(F)F [Example 47, N-[(5Z)-4-butyl-2-tert-butylisothiazol-5(2H)-ylidene]-5-chloro-2-(2,2,2-trifluoroethoxy)benzamide] | 1.8 nM | – | 7.3 nM
COc1ccc(C#N)cc1C(=O)/N=c1\sn(C(C)(C)C)cc1Cc1cccs1 [Example 53, N-[(5Z)-2-tert-butyl-4-(thien-2-ylmethyl)isothiazol-5(2H)-ylidene]-5-cyano-2-methoxybenzamide] | 2.6 nM | – | 59 nM
COc1ccc(Cl)cc1C(=O)/N=c1\sn(C(C)(C)C)cc1Cc1cccs1 [Example 54, N-[(5Z)-2-tert-butyl-4-(thien-2-ylmethyl)isothiazol-5(2H)-ylidene]-5-chloro-2-methoxybenzamide] | 1 nM | – | 17 nM

SMILES | Ki (rat CB2) | Ki (human CB2 receptors; [1]) | Ki (human CB2 receptors)
CCCCc1cn(C(C)(C)C)s/c1=N\C(=O)c1cc(C=NOC)ccc1OC [Example 57, N-[(5Z)-4-butyl-2-tert-butylisothiazol-5(2H)-ylidene]-2-methoxy-5-[(methoxyimino)methyl]benzamide] | 18 nM | 190 nM | –
CCCCc1cn(C(C)(C)C)s/c1=N\C(=O)c1cc(I)ccc1OC [Example 61, N-[(5Z)-4-butyl-2-tert-butylisothiazol-5(2H)-ylidene]-5-iodo-2-methoxybenzamide] | 0.51 nM | – | 7.6 nM
C#Cc1ccc(OC)c(C(=O)/N=c2\sn(C(C)(C)C)cc2CCCC)c1 [Example 62, N-[(5Z)-4-butyl-2-tert-butylisothiazol-5(2H)-ylidene]-5-ethynyl-2-methoxybenzamide] | 3.1 nM | – | 27 nM
CCCCc1cn(C(C)(C)C)s/c1=N\C(=O)c1cc(OC(F)(F)F)ccc1OC [Example 63, N-[(5Z)-4-butyl-2-tert-butylisothiazol-5(2H)-ylidene]-2-methoxy-5-(trifluoromethoxy)benzamide] | 3.4 nM | – | 33 nM
CCCCc1cn(C(C)(C)C)s/c1=N\C(=O)c1cc(CF)ccc1OC [Example 66, N-[(5Z)-4-butyl-2-tert-butylisothiazol-5(2H)-ylidene]-5-(fluoromethyl)-2-methoxybenzamide] | 12 nM | 103 nM | –
CC(C)(C)n1cc(Cc2ccco2)/c(=N/C(=O)c2cccc(C(F)(F)F)c2F)s1 [Example 70, N-[(5Z)-2-tert-butyl-4-(2-furylmethyl)isothiazol-5(2H)-ylidene]-2-fluoro-3-(trifluoromethyl)benzamide] | 4.2 nM | – | 34 nM
CCCCc1cn(C(C)(C)C)s/c1=N\C(=O)c1cc(C(C)C)ccc1OC [Example 82, N-[(5Z)-4-butyl-2-tert-butylisothiazol-5(2H)-ylidene]-5-isopropyl-2-methoxybenzamide] | 15 nM | 160 nM | –
COc1ccc(Cl)cc1C(=O)/N=c1\sn(C(C)(C)C)cc1COC[C@H]1CCCO1 [Example 89, N-[(5Z)-2-tert-butyl-4-{[(2R)-tetrahydrofuran-2-ylmethoxy]methyl}isothiazol-5(2H)-ylidene]-5-chloro-2-methoxybenzamide] | 7.9 nM | 190 nM | –
COc1ccc(Cl)cc1C(=O)/N=c1\sn(C(C)(C)C)cc1COCCF [Example 90, N-[(5Z)-2-tert-butyl-4-[(2-fluoroethoxy)methyl]isothiazol-5(2H)-ylidene]-5-chloro-2-methoxybenzamide] | 27 nM | 280 nM | –
CCCCc1cn(C(C)(C)C)s/c1=N\C(=O)C1(c2ccc(F)cc2Cl)CCCCC1 [Example 95, N-[(5Z)-4-butyl-2-tert-butylisothiazol-5(2H)-ylidene]-1-(2-chloro-4-fluorophenyl)cyclohexanecarboxamide] | 2.3 nM | – | 7.5 nM
CCCCc1cn(C(C)(C)C)s/c1=N\C(=O)C1(c2ccccc2)CCCC1 [Example 98, N-[(5Z)-4-butyl-2-tert-butylisothiazol-5(2H)-ylidene]-1-phenylcyclopentanecarboxamide] | 4.8 nM | – | 10 nM
CCCCc1cn(C(C)(C)C)s/c1=N\C(=O)C12CCC(C(=O)OC)(CC1)CC2 [Example 108, Methyl 4-({[(5Z)-4-butyl-2-tert-butylisothiazol-5(2H)-ylidene]amino}carbonyl)bicyclo[2.2.2]octane-1-carboxylate] | 13 nM | 180 nM | –
CCCCc1cn(C(C)(C)C)s/c1=N\S(=O)(=O)c1cc(Cl)ccc1OC [Example 115, N-[(5Z)-4-butyl-2-tert-butylisothiazol-5(2H)-ylidene]-5-chloro-2-methoxybenzenesulfonamide] | 33 nM | – | 53 nM
CCCCc1cn(C(C)(C)C)s/c1=N\S(=O)(=O)c1ccccc1 [Example 119, N-[(5Z)-4-butyl-2-tert-butylisothiazol-5(2H)-ylidene]benzenesulfonamide] | 33 nM | 170 nM | –
CCCCc1cn(C(C)(C)C)s/c1=N\C(=O)c1cc(C#N)ccc1OCC(F)(F)F [Example 130, N-[(5Z)-4-butyl-2-tert-butylisothiazol-5(2H)-ylidene]-5-cyano-2-(2,2,2-trifluoroethoxy)benzamide] | 2.8 nM | – | 81 nM
COc1ccc(Cl)cc1C(=O)/N=c1\sn(C(C)(C)C)c(C)c1NC(=O)OC(C)(C)C [Example 162, Tert-butyl [(5Z)-2-tert-butyl-5-{[(5-chloro-2-methoxyphenyl)carbonyl]imino}-3-methyl-2,5-dihydroisothiazol-4-yl]carbamate] | 47 nM | 120 nM | –
